Laboratory results taken from ChEMBL document CHEMBL1150051, “Antiviral (RNA) activity of selected Amaryllidaceae isoquinoline constituents and synthesis of related substances” (J Nat Prod, 1992).
In brackets after ≈: the same amount, converted by molar mass.

Legend:
Yellow fever virus = assay: Antiviral activity against Yellow fever virus Ashibi infected in african green monkey Vero cells assessed as inhibition of virus-induced cytopathic effect by MTT assay; type: functional, organism-based
Punta Toro virus = assay: Antiviral activity against Punta Toro virus Adames infected in african green monkey Vero cells assessed as inhibition of virus-induced cytopathic effect by MTT assay; type: functional, organism-based
Rift Valley fever virus = assay: Antiviral activity against Rift Valley fever virus infected in african green monkey Vero cells after 6 days by plaque reduction assay; type: functional, organism-based
[1] = tested on: Sandfly fever Sicilian virus; assay: Antiviral activity against Sandfly fever sicilian virus infected in african green monkey Vero cells assessed as inhibition of virus-induced cytopathic effect by MTT assay; type: functional, organism-based
[2] = tested on: Japanese encephalitis virus; assay: Antiviral activity against Japanese encephalitis virus Nakayama infected in african green monkey Vero cells assessed as inhibition of virus-induced cytopathic effect by MTT assay; type: functional, organism-based
[3] = Therapeutic index, ratio of TC50 for african green monkey Vero cells to IC50 for Japanese encephalitis virus Nakayama; type: cell-based; settings: read-out: TI
[4] = Therapeutic index, ratio of TC50 for african green monkey Vero cells to IC50 for Dengue type 4 virus; type: cell-based; settings: read-out: TI
[5] = Therapeutic index, ratio of TC50 for african green monkey Vero cells to IC50 for Punta toro virus Adames; type: cell-based; settings: read-out: TI
[6] = Therapeutic index, ratio of TC50 for african green monkey Vero cells to IC50 for Yellow fever virus Ashibi; type: cell-based; settings: read-out: TI
dengue virus type 4 = assay: Antiviral activity against Dengue virus type 4 infected in african green monkey Vero cells after 6 days by plaque reduction assay; type: functional, organism-based
[7] = Therapeutic index, ratio of TC50 for african green monkey Vero cells to IC50 for Rift valley fever virus; type: cell-based; settings: read-out: TI
[8] = Therapeutic index, ratio of TC50 for african green monkey Vero cells to IC50 for Sandfly fever sicilian virus; type: cell-based; settings: read-out: TI
[9] = Yellow fever virus, Ashibi, Vero, read-out: IC50
[10] = Punta Toro virus, Adames, Vero, read-out: IC50
[11] = Dengue virus, Vero, 144 h, read-out: IC50
[12] = Japanese encephalitis virus, Nakayama, Vero, read-out: IC50
[13] = Rift Valley fever virus, Vero, 144 h, read-out: IC50
[14] = sandfly fever Sicilian virus, Vero, read-out: IC50

Row | Compound | IC50 (Yellow fever virus; vero) | IC50 (Punta Toro virus; vero) | IC50 (Rift Valley fever virus; vero) | IC50 ([1]; vero) | IC50 ([2]; vero) | IC50 (Yellow fever virus; [9]) [µg/mL] | selectivity ratio [3] | selectivity ratio [4] | IC50 (Punta Toro virus; [10]) [µg/mL] | selectivity ratio [5] | selectivity ratio [6] | IC50 (dengue virus type 4; [11]) [µg/mL] | IC50 [2, 12] [µg/mL] | selectivity ratio [7] | IC50 (Rift Valley fever virus; [13]) [µg/mL] | IC50 (dengue virus type 4; vero) | inhibition (INH) [1] [%] | selectivity ratio [8] | IC50 [1, 14] [µg/mL] | inhibition (INH) (Yellow fever virus) [%]
1 | O=C1N[C@H]2C=C[C@@H](O)[C@H](OC3CCCCO3)[C@@H]2c2cc3c(cc21)OCO3 (stereo partly specified) | Not Active | Not Active | Not Active | Not Active | Not Active | – | – | – | – | – | – | – | – | – | – | – | – | – | – | –
2 | CC(=O)O[C@@H]1[C@@H](OC(C)=O)[C@H](O)[C@@H]2c3cc4c(cc3C(=O)N[C@H]2[C@@H]1OC(C)=O)OCO4 | – | – | Not Active | Not Active | – | 2.2 (≈ 5.05 µM) | 3.6 | > 20 | 2.5 (≈ 5.74 µM) | 4.2 | 3.8 | < 5 | 4.5 (≈ 10.3 µM) | – | – | – | – | – | – | –
3 | O=C1N[C@H]2[C@H](O)[C@H](O)[C@@H](O)C[C@@H]2c2cc3c(cc21)OCO3 | – | – | – | Not Active | – | 0.037 (≈ 0.126 µM) | 5.6 | 5 | 0.057 (≈ 0.194 µM) | 5.9 | 7.5 | 0.5 (≈ 1.7 µM) | 0.039 (≈ 0.133 µM) | 2 | 0.25 (≈ 0.852 µM) | – | – | – | – | –
4 | CC(=O)O[C@@H]1[C@H](OC(C)=O)[C@@H](OC(C)=O)C=C2c3cc4c(cc3C(=O)N[C@H]21)OCO4 [LYCORICIDINE TRIACETATE] | Not Active | Not Active | Not Active | Not Active | Not Active | – | – | – | – | – | – | – | – | – | – | Not Active | – | – | – | –
5 | COc1cc2c(cc1O)[C@@H]1[C@H](O)[C@@H](O)C=C3CCN(C2)[C@H]31 [PSEUDOLYCORINE] | – | – | – | Not Active | – | 0.35 (≈ 1.21 µM) | 5 | 2.6 | 0.6 (≈ 2.07 µM) | 3.9 | 3.7 | 0.39 (≈ 1.35 µM) | 0.28 (≈ 0.968 µM) | 6 | 0.63 (≈ 2.18 µM) | – | – | – | – | –
6 | O=C1N[C@H]2C=C[C@@H](O)[C@H](O)[C@@H]2c2cc3c(cc21)OCO3 | Not Active | Not Active | Not Active | Not Active | Not Active | – | – | – | – | – | – | – | – | – | – | – | – | – | – | –
7 | O=C1N[C@H]2[C@H](O)[C@H](O)[C@@H](O)C[C@H]2c2cc3c(c(O)c21)OCO3 | – | – | – | – | – | 1.3 (≈ 4.2 µM) | 5.1 | > 2 | 2.2 (≈ 7.11 µM) | 3.6 | 3.9 | 2.5 (≈ 8.08 µM) | 0.96 (≈ 3.1 µM) | 3.6 | 1.4 (≈ 4.53 µM) | – | 25 | – | – | –
8 | O=C1N[C@@H]2C(=C[C@H](O)[C@@H](O)[C@H]2O)c2cc3c(cc21)OCO3 | – | – | – | – | – | 0.053 (≈ 0.182 µM) | 4.9 | 4.2 | 0.042 (≈ 0.144 µM) | 6.3 | 5.6 | 0.059 (≈ 0.203 µM) | 0.056 (≈ 0.192 µM) | 5.5 | 0.15 (≈ 0.515 µM) | – | – | 4.5 | 0.058 (≈ 0.199 µM) | –
9 | O=C1N[C@H]2C[C@@H](O)[C@@H](O)[C@H](O)[C@@H]2c2cc3c(cc21)OCO3 | Not Active | Not Active | Not Active | Not Active | Not Active | – | – | – | – | – | – | – | – | – | – | – | – | – | – | –
10 | CO[C@@H]1C=C[C@@]23c4cc5c(cc4C(O)O[C@H]2CN(C)[C@H]3C1)OCO5 (stereo partly specified) [PRETAZETTINE] | – | – | – | – | – | 0.5 (≈ 1.51 µM) | 3.8 | – | 0.61 (≈ 1.84 µM) | 3.7 | 5.6 | – | 0.6 (≈ 1.81 µM) | 3.5 | 2.9 (≈ 8.75 µM) | – | – | 3 | 0.82 (≈ 2.47 µM) | –
11 | O=C1N[C@H]2CC=C[C@H](O)[C@@H]2c2cc3c(cc21)OCO3 | Not Active | Not Active | Not Active | Not Active | Not Active | – | – | – | – | – | – | – | – | – | – | – | – | – | – | –
12 | O[C@H]1[C@H]2c3cc4c(cc3CN3CCC(=C[C@@H]1O)[C@H]23)OCO4 [LYCORINE] | – | – | – | Not Active | – | 0.28 (≈ 0.975 µM) | 8.2 | 10.4 | 0.5 (≈ 1.74 µM) | 4.6 | 7.3 | 0.24 (≈ 0.835 µM) | 0.33 (≈ 1.15 µM) | 5.4 | 0.93 (≈ 3.24 µM) | – | – | – | – | –
13 | CC(=O)O[C@@H]1[C@@H](OC(C)=O)[C@H](OC(C)=O)[C@@H]2c3cc4c(cc3C(=O)N[C@H]2[C@@H]1OC(C)=O)OCO4 | – | Not Active | Not Active | Not Active | – | 262 (≈ 549 µM) | 2.8 | – | – | – | 3.8 | – | 724 (≈ 1520 µM) | – | – | – | – | – | – | –
14 | CC(=O)Oc1c2c(cc3c1C(=O)N[C@H]1[C@H](OC(C)=O)[C@H](OC(C)=O)[C@@H](OC(C)=O)C[C@@H]31)OCO2 | – | – | – | – | – | – | 3.5 | – | 12 (≈ 25.1 µM) | 6.4 | – | – | 8.1 (≈ 17 µM) | – | – | – | 25 | – | – | 25
15 | O=c1[nH]c2c(c3cc4c(cc13)OCO4)C[C@H](O)[C@@H](O)[C@H]2O | – | – | – | Not Active | Not Active | 5.7 (≈ 19.6 µM) | – | 5.9 | 7.2 (≈ 24.7 µM) | 3.7 | 4.2 | 8.5 (≈ 29.2 µM) | – | 5 | 10 (≈ 34.3 µM) | – | – | – | – | –
16 | O=C1N[C@H]2[C@H](O)[C@H](O)[C@@H](O)C[C@H]2c2cc3c(cc21)OCO3 | – | – | – | – | – | 9.6 (≈ 32.7 µM) | 4.9 | 5.7 | 14 (≈ 47.7 µM) | 4.8 | 6.6 | 4.4 (≈ 15 µM) | 12.7 (≈ 43.3 µM) | – | – | – | – | 3 | 25 (≈ 85.2 µM) | –
17 | CC(=O)O[C@@H]1[C@@H](O)[C@@H](O)[C@@H]2NC(=O)c3cc4c(cc3[C@H]2[C@H]1O)OCO4 [LYCORICIDINE MONOACETATE] | – | – | – | Not Active | – | 4.8 | 3.3 | 33.3 | 4.7 | 2.1 | 4.3 | 1.5 | 3.3 | 4.4 | 5.5 | – | – | – | – | –
18 | O=c1[nH]c2c(c3cc4c(c(O)c13)OCO4)C[C@H](O)[C@@H](O)[C@H]2O [ISONARCICLASINE] | – | – | – | Not Active | – | 0.22 (≈ 0.716 µM) | 2.1 | 18.5 | 0.28 (≈ 0.911 µM) | 5.1 | 4.1 | 0.27 (≈ 0.879 µM) | 0.72 (≈ 2.34 µM) | 7.6 | 3.3 (≈ 10.7 µM) | – | – | – | – | –
19 | O=C1N[C@@H]2C(=C[C@H](O)[C@@H](O)[C@H]2O)c2cc3c(c(O)c21)OCO3 [NARCICLASINE] | – | – | Not Active | Not Active | – | 0.006 (≈ 0.0195 µM) | 4.08 | 4 | 0.0074 (≈ 0.0241 µM) | 3.9 | 6.1 | 0.015 (≈ 0.0488 µM) | 0.008 (≈ 0.026 µM) | – | – | – | – | – | – | –
20 | O=C1N[C@H]2[C@H](O)[C@H](O)[C@@H](O)C[C@@H]2c2cc3c(c(O)c21)OCO3 | – | – | – | Not Active | – | < 0.003 | 5.6 | 4.2 | 0.008 (≈ 0.0259 µM) | 3.3 | > 8.5 | 0.015 (≈ 0.0485 µM) | 0.004 (≈ 0.0129 µM) | – | – | – | – | – | – | –
